The values below come from patent US20090291964A1, “Potentiators of Antibacterial Activity” (priority 2003, published 2009).

Common to all, as to format: cell-based
For assay [1], the system named is S. aureus ATCC 29213. Kind of assay: MIC by NCCLS microdilution, antibacterial agents with and without EPI. The settings on record: for MIC: Staphylococcus aureus; for MIC in the presence of 4X MEC of EPI, VX-710: VX-710 100 μg/ml; for MIC in the presence of 4X MEC of EPI, VX-853: VX-853 6.25 μg/ml; for MIC in the presence of 4X MEC of EPI, reserpine: reserpine 25 μg/ml. As to the method:
3% sterile laked horse blood (Quad Five, Ryegate, Mont.) was added to assays for E. faecalis and S. Pneumoniae. A final concentration of 1% DMSO was present in all assays. […]
A-106 and C-9 were tested at their respective MECs in combination with a variety of different classes of antibiotics against S. aureus ATCC 29213 (Table 2).

Assay [2] relates to S. aureus clinical isolates. Put plainly: MIC90 studies: fluoroquinolone susceptibility of clinical isolate panel with EPI. The settings on record: Staphylococcus aureus. As to the method:
(§1) Susceptibility studies with large panels of resistant clinical isolates were performed at Focus Technologies, Herndon, Va. according to NCCLS protocols (National Committee for Clinical Laboratory Standards, supra).
(§2) To be useful in combination therapy, an EPI needs to substantially reduce the MIC of an antibiotic to within the range of clinical susceptibility. Because many different resistance mechanisms are often present in clinical isolates, including the likelihood of multiple target-based mutations in addition to efflux mutations, the barrier to antibiotic efficacy is much greater. […] Oxacillin and vancomycin MICs were also determined to identify which isolates were methicillin-resistant (S. aureus) and vancomycin-resistant (E. faecalis).

Assay [3] deals with S. aureus SA-1199B (NorA overproducing). Put plainly: MIC of fluoroquinolones with and without EPI. Particulars: S. aureus SA-1199B (NorA overproducer, GrlA A116E); no EPI. From the text:
(§3) A variety of strains may be used in these experiments, including, but not limited to, S. aureus ATCC 29213, E. faecalis ATCC 29212, and S. pneumoniae, S. aureus strains SA-1199, SA-1199B, SA-8325-4, and SA-K2068. S. aureus ATCC 29213, E. faecalis ATCC 29212, and S. pneumoniae ATCC 10015 were obtained from the American Type Culture Collection (Manassas, Va.). S. aureus strains SA-1199 (clinical isolate, susceptible), SA-1199B (SA-1199, NorA overproducing, also has A116E GrlA mutation), SA-8325-4 (NCTC 8325 cured of prophages), SA-K2068 (SA-8325-4, non-NorA multidrug efflux pump overproducing mutation) were obtained from Glenn Kaatz (Kaatz et al., “Identification and characterization of a novel efflux-related multidrug resistance phenotype in Staphylococcus aureus”, J. Antimicrob. Chemother. 50:833-838 (2002); 1993; Kaatz et al., “Phenothiazines and thioxanthenes inhibit multidrug efflux pump activity in Staphylococcus aureus”, Antimicrob. Agents Chemother. 47:719-726, Kaatz et al., “Efflux-mediated fluoroquinolone resistance in Staphylococcus aureus. Antimicrob. Agents Chemother.”, 37:1086-1094, 1993)).
(§4) 3% sterile laked horse blood (Quad Five, Ryegate, Mont.) was added to assays for E. faecalis and S. Pneumoniae. A final concentration of 1% DMSO was present in all assays.
(§5) Recent more hydrophobic fluoroquinolones such as gatifloxacin and moxifloxacin are less well recognized by NorA; however, recently one other pump in S. aureus has been described which also recognizes hydrophobic fluoroquinolones (Kaatz et al. 2002, supra). To investigate the potential of A-106 and C-9 to block the efflux of several fluoroquinolones in cells with constituitively over-expressed efflux pumps, we used S. aureus strains SA-1199B and K2068 (Table 3). […] Kaatz et al., “Phenothiazines and thioxanthenes inhibit multidrug efflux pump activity in Staphylococcus aureus”, Antimicrob. Agents Chemother. 47:719-726 (2003).

Assay [4] deals with S. aureus SA-K2068 (non-NorA multidrug efflux pump overproducing). Put plainly: microbe, parasite or virus in culture. Particulars: S. aureus K2068 (non-NorA MDR pump overproducer); no EPI.
From the text: as §3, §4, §5

The test system of assay [5] is S. aureus SA-1199 (clinical isolate, susceptible). Put plainly: MIC of fluoroquinolones with and without EPI. Particulars: S. aureus SA-1199; no EPI.
From the text: as §3, §4

The test system of assay [6] is E. faecalis clinical isolates. Put plainly: MIC90 studies: fluoroquinolone susceptibility of clinical isolate panel with EPI. The settings on record: Enterococcus faecalis. The protocol:
as §1, §2

Where [7] appears, read: ATCC29213, antibacterial agent alone, read-out: MIC, No EPI.

Like-named read-outs stand apart in the source and are kept apart here. A value given as a limit tells only on which side of the number the result lay.

Turning to `CO[C@@H]1[C@@H](OC(N)=O)[C@@H](O)[C@H](Oc2ccc3c(O)c(NC(=O)c4ccc(O)c(CC=C(C)C)c4)c(=O)oc3c2C)OC1(C)C` [novobiocin], the MIC in assay [1] (setting [7]) is 0.125 µg/mL. In addition, in assay [1], the “MIC in the presence of 4X MEC of EPI, VX-710” value (“MIC in the presence … VX-710” for short) amounted to 0.063 µg/mL; the “MIC in the presence of 4X MEC of EPI, VX-853” value (“MIC in the presence … VX-853” for short) worked out at 0.063 µg/mL; the “MIC in the presence of 4X MEC of EPI, reserpine” value (“MIC in the presence … reserpine” below) worked out at 0.063 µg/mL.

`Cc1onc(-c2ccccc2)c1C(=O)N[C@@H]1C(=O)N2[C@@H]1SC(C)(C)[C@@H]2C(=O)O` [Oxacillin]: the MIC in assay [2] (S. aureus clinical isolate 1) was 16 µg/mL; in assay [2] (S. aureus clinical isolate 2), > 64 µg/mL; in assay [2] (S. aureus clinical isolate 3), 32 µg/mL; in assay [2] (S. aureus clinical isolate 4) it was > 64 µg/mL; in assay [2] (S. aureus clinical isolate 5) it was 2 µg/mL; in assay [2] (S. aureus clinical isolate 6), 16 µg/mL. In addition, the MIC in assay [2] (S. aureus clinical isolate 7) was 2 µg/mL; in assay [2] (S. aureus clinical isolate 8) it was 4 µg/mL; in assay [2] (S. aureus clinical isolate 9) it was 2 µg/mL; in assay [2] (S. aureus clinical isolate 10), > 64 µg/mL; in assay [2] (S. aureus clinical isolate 11) it was > 64 µg/mL; in assay [2] (S. aureus clinical isolate 12), 2 µg/mL. The MIC in assay [2] (S. aureus clinical isolate 13), in assay [2] (S. aureus clinical isolate 14) and in assay [2] (S. aureus clinical isolate 15) was > 64 µg/mL in each case.

As to `CC(=O)NC[C@H]1CN(c2ccc(N3CCOCC3)c(F)c2)C(=O)O1` [linezolid], the minimum inhibitory concentration (MIC) in assay [1] (setting [7]) stood at 4 µg/mL. Further, in assay [1], the “MIC in the presence … VX-710” value is 4 µg/mL; the “MIC in the presence … VX-853” value amounted to 4 µg/mL; the “MIC in the presence … reserpine” value was found to be 4 µg/mL.

As to gentamicin [reference compound], the “MIC of antibacterial agent, EPI none” value stood at 0.5 µg/mL in assay [1] (S. aureus ATCC 29213, no EPI); 0.5 µg/mL in assay [3]; 0.063 µg/mL in assay [4]; 0.5 µg/mL in assay [5]. Further, the “MIC in the presence … VX-853” value in assay [1] amounted to 0.25 µg/mL. For the same molecule, the “MIC, No EPI” value in assay [1] (antibacterial agent alone) amounted to 0.5 µg/mL.

In the case of `CO/N=C(\C(=O)N[C@@H]1C(=O)N2C(C(=O)O)=C(CSc3nc(=O)c(=O)[nH]n3C)CS[C@H]12)c1csc(N)n1` [ceftriaxone], in assay [1] (setting [7]), the MIC came to 4 µg/mL. In addition, in assay [1], the “MIC in the presence … VX-710” value was found to be 4 µg/mL; the “MIC in the presence … VX-853” value is 4 µg/mL; the “MIC in the presence … reserpine” value was 4 µg/mL.

`[Br-].c1ccc([P+](c2ccccc2)(c2ccccc2)c2ccccc2)cc1` [tetraphenylphosphonium bromide]: in assay [1] (ATCC29213, read-out: MIC, No EPI, antibacterial agent alone), the MIC came to 16 µg/mL. Besides, in assay [1], the “MIC in the presence … VX-710” value came out at 4 µg/mL; the “MIC in the presence … VX-853” value was found to be 8 µg/mL; the “MIC in the presence … reserpine” value was 8 µg/mL.

`CN[C@H](CC(C)C)C(=O)N[C@H]1C(=O)N[C@@H](CC(N)=O)C(=O)N[C@H]2C(=O)N[C@H]3C(=O)N[C@H](C(=O)N[C@H](C(=O)O)c4cc(O)cc(O)c4-c4cc3ccc4O)[C@H](O)c3ccc(c(Cl)c3)Oc3cc2cc(c3O[C@@H]2O[C@H](CO)[C@@H](O)[C@H](O)[C@H]2O[C@H]2C[C@](C)(N)[C@H](O)[C@H](C)O2)Oc2ccc(cc2Cl)[C@H]1O` [Vancomycin]: the MIC in assay [6] (read-out: MIC, No EPI, E. faecalis clinical isolate 1) is 1 µg/mL; in assay [6] (read-out: MIC, No EPI, E. faecalis clinical isolate 2), 4 µg/mL; in assay [6] (read-out: MIC, No EPI, E. faecalis clinical isolate 3) it was > 256 µg/mL; in assay [6] (read-out: MIC, No EPI, E. faecalis clinical isolate 4) it was 1 µg/mL; in assay [6] (read-out: MIC, No EPI, E. faecalis clinical isolate 5), 2 µg/mL; in assay [6] (read-out: MIC, No EPI, E. faecalis clinical isolate 6) it was 2 µg/mL. Besides, the MIC is 1 µg/mL in assay [6] (read-out: MIC, No EPI, E. faecalis clinical isolate 7); 128 µg/mL in assay [6] (read-out: MIC, No EPI, E. faecalis clinical isolate 8); 1 µg/mL in assay [6] (read-out: MIC, No EPI, E. faecalis clinical isolate 9); 2 µg/mL in assay [6] (read-out: MIC, No EPI, E. faecalis clinical isolate 10); 16 µg/mL in assay [6] (read-out: MIC, No EPI, E. faecalis clinical isolate 11); 4 µg/mL in assay [6] (read-out: MIC, No EPI, E. faecalis clinical isolate 12). Moreover, the MIC in assay [6] (read-out: MIC, No EPI, E. faecalis clinical isolate 13) is 2 µg/mL; in assay [6] (read-out: MIC, No EPI, E. faecalis clinical isolate 14) it was 1 µg/mL; in assay [6] (read-out: MIC, No EPI, E. faecalis clinical isolate 15), 4 µg/mL; in assay [6] (read-out: MIC, No EPI, E. faecalis clinical isolate 16), 0.5 µg/mL; in assay [6] (read-out: MIC, No EPI, E. faecalis clinical isolate 17) it was 4 µg/mL; in assay [6] (read-out: MIC, No EPI, E. faecalis clinical isolate 18) it was > 256 µg/mL. Besides, the MIC in assay [6] (read-out: MIC, No EPI, E. faecalis clinical isolate 19) turned out to be 2 µg/mL; in assay [6] (read-out: MIC, No EPI, E. faecalis clinical isolate 20) it was 2 µg/mL; in assay [6] (read-out: MIC, No EPI, E. faecalis clinical isolate 21), 1 µg/mL; in assay [6] (read-out: MIC, No EPI, E. faecalis clinical isolate 22), 1 µg/mL; in assay [6] (read-out: MIC, No EPI, E. faecalis clinical isolate 23), 2 µg/mL; in assay [6] (read-out: MIC, No EPI, E. faecalis clinical isolate 24), 1 µg/mL. The MIC was 1 µg/mL in assay [6] (read-out: MIC, No EPI, E. faecalis clinical isolate 25) and > 256 µg/mL in assay [6] (read-out: MIC, No EPI, E. faecalis clinical isolate 26).

On to `CC[C@H]1OC(=O)[C@H](C)[C@@H](O[C@H]2C[C@@](C)(OC)[C@@H](O)[C@H](C)O2)[C@H](C)[C@@H](O[C@@H]2O[C@H](C)C[C@H](N(C)C)[C@H]2O)[C@](C)(O)C[C@@H](C)CN(C)[C@H](C)[C@@H](O)[C@]1(C)O` [azithromycin], for which the MIC in assay [1] (setting [7]) was 1 µg/mL. In assay [1], the “MIC in the presence … VX-710” value stood at 1 µg/mL; the “MIC in the presence … VX-853” value was determined as 1 µg/mL; the “MIC in the presence … reserpine” value amounted to 1 µg/mL.

For `CC[C@H]1OC(=O)[C@H](C)[C@@H](O[C@H]2C[C@@](C)(OC)[C@@H](O)[C@H](C)O2)[C@H](C)[C@@H](O[C@@H]2O[C@H](C)C[C@H](N(C)C)[C@H]2O)[C@](C)(O)C[C@@H](C)C(=O)[C@H](C)[C@@H](O)[C@]1(C)O` [erythromycin], in assay [1] (setting [7]), the MIC was 0.25 µg/mL. Moreover, in assay [1], the “MIC in the presence … VX-710” value was 0.25 µg/mL; the “MIC in the presence … VX-853” value is 0.25 µg/mL; the “MIC in the presence … reserpine” value was 0.25 µg/mL.

For the molecule `O=C(N[C@H](CO)[C@H](O)c1ccc([N+](=O)[O-])cc1)C(Cl)Cl` [chloramphenicol], the MIC in assay [1] (setting [7]) stood at 8 µg/mL. Also, in assay [1], the “MIC in the presence … VX-710” value worked out at 8 µg/mL; the “MIC in the presence … VX-853” value is 8 µg/mL; the “MIC in the presence … reserpine” value was 8 µg/mL.
